In brackets after ≈: the same amount, converted by molar mass. Read-outs that look alike come from different tables or passages of the source.
Tests used:
[1] = test system: QoI-resistant SEPTTR isolates ('G143A'); test: in vitro fungitoxicity, panel of SEPTTR isolates, QoI-resistant; conditions: for fold less active against QoI-resistant than QoI-sensitive isolates: resistant vs sensitive; for mean EC50, QoI-resistant (n = 14): mean of 14 QoI-resistant isolates
Text: (§1) A panel of 31 SEPTTR isolates was used in in vitro fungitoxicity experiments. Most of the used isolates were isolated from wheat in the UK from 2001 to 2005.

[2] = test system: QoI-sensitive SEPTTR isolates ('WT'); test: in vitro fungitoxicity, panel of SEPTTR isolates, QoI-sensitive; conditions: for mean EC50, QoI-Sensitive (n = 17): mean of 17 QoI-sensitive isolates
Text: as §1

[3] = test system: SEPTTR field isolate R2004-6 (G143A mutation in cytochrome b)
[4] = test system: SEPTTR field isolate LARS 15; test: in vitro fungitoxicity, microtiter plate assay, strobilurin-sensitive isolate; conditions: for LARS 15 EC50: isolate LARS 15, sensitive to strobilurins; for activity against the LARS 15 strain (in words): isolate LARS 15
[5] = test system: SEPTTR field isolate R2004-6 (G143A mutation in cytochrome b); test: in vitro fungitoxicity, microtiter plate assay, strobilurin-resistant isolate; conditions: for R2004-6 EC50: isolate R2004-6, G143A, resistant to strobilurins; for activity against the QoI-resistant strain R2004-6 (in words): isolate R2004-6
[6] = test system: QoI-resistant SEPTTR isolates; test: in-planta control of SEPTTR on wheat cultivar Riband, QoI-resistant isolates; format: in vivo, Septoria tritici; conditions: visual inspection 21 days after inoculation

| Compound | R2004-6 EC50 [3] [ppm] | LARS 15 EC50 [4] [ppm] | R2004-6 EC50 [5] [ppm] | further results |
| --- | --- | --- | --- | --- |
| Fc1ccc([C@]2(Cn3cncn3)O[C@H]2c2ccccc2Cl)cc1 (racemic) [Epoxiconazole, epoxiconazole] |  |  |  | EC50 ([1]; Zymoseptoria tritici, read-out: mean EC50, QoI-resistant (n = 14)): 0.589 µg/mL (≈ 1.79 µM); fold less active against QoI-resistant than QoI-sensitive isolates ([1]; ratio of mean EC50 values): 1.7 fold; EC50 ([2]; Zymoseptoria tritici, read-out: mean EC50, QoI-Sensitive (n = 17)): 0.351 µg/mL (≈ 1.06 µM) |
| C[C@@]1(c2ccc(Oc3ccccc3)cc2)OC(=O)N(Nc2ccccc2)C1=O (racemic) [Famoxadone, famoxadone] | >5 | 0.136 |  |  |
| CO/C=C(/C(=O)OC)c1ccccc1Oc1cc(Oc2ccccc2C#N)ncn1 [Azoxystrobin, azoxystrobin] |  | 0.011 | 3.00 | mean EC50, QoI-resistant (n = 14) [1]: 9.077 µg/mL; fold less active against QoI-resistant than QoI-sensitive isolates ([1]; ratio of mean EC50 values): 160 fold; mean EC50, QoI-Sensitive (n = 17) [2]: 0.057 µg/mL |
| COc1ccnc(C(=O)N[C@H]2COC(=O)[C@H](Cc3ccccc3)[C@@H](OC(=O)C(C)C)[C@H](C)OC2=O)c1OCOC(=O)C(C)C [Compound 1] |  | 0.169 | 0.122 | mean EC50, QoI-resistant (n = 14) [1]: 0.021 µg/mL; fold more active against QoI-resistant than QoI-sensitive isolates ([1]; ratio of mean EC50 values, sensitive vs resistant): 1.7 fold; activity against the QoI-resistant strain R2004-6 (in words) [5]: highly active; mean EC50, QoI-Sensitive (n = 17) [2]: 0.035 µg/mL; activity against the LARS 15 strain (in words) [4]: highly active; breaking rate for control of SEPTTR infection ([6]; isolate G3-03, QoI R): 0.9 ppm; breaking rate for control of SEPTTR infection ([6]; isolate TwistB-02, QoI R): 0.3 ppm |
| CCC1(C)CC(NC(=O)c2cccc(NC=O)c2O)CC(C)(C)C1 (stereo not shown) [Compound 2] | <0.0005 | 0.0006 |  |  |
| COc1ccnc(C(=O)NC2CCCC(Sc3ccc(C(C)(C)C)cc3)C2)c1O (stereo not shown) [Compound 3] | 0.059 | 0.049 |  |  |
| CO/N=C(/C(=O)OC)c1ccccc1COc1ccccc1C [Kresoxim-methyl, kresoxim-methyl] | >5 | <0.005 |  |  |
| UK2A [UK-2A] |  | 0.037 | 0.029 | activity against the QoI-resistant strain R2004-6 (in words) [5]: highly active; activity against the LARS 15 strain (in words) [4]: highly active |
| antimycin A |  | 0.021 | 0.011 |  |

Reference: patent US20090306142A1, “METHODS TO CONTROL QoI-RESISTANT FUNGAL PATHOGENS” (DOW AGROSCIENCES LLC, priority 2008, published 2009)
